From the NIST ThermoML archive (doi:10.1007/s10765-010-0886-6)
Values joined by “and” are separate entries in the source; they are usually repeats but may differ in a detail not shown here. Equal entries are not always repeated.

Conditions: gamma-densimeter

Fc1cc(F)c(F)c(F)c1F [pentafluorobenzene]
mass density
Conditions	Gas	Liquid
293.47 K	–	1525.2 kg/m3
314 K	1.13 kg/m3	1483.8 kg/m3
334 K	–	1441.8 kg/m3
353.98 K	–	1399.8 kg/m3
374.24 K	–	1353.6 kg/m3
393.95 K	15.9 kg/m3	1307.6 kg/m3
413.94 K	24.8 kg/m3 and 24.9 kg/m3	1257.5 kg/m3
413.95 K	24.7 kg/m3	–
433.98 K	38.6 kg/m3	1203 kg/m3
454.02 K	58.3 kg/m3	1142.5 kg/m3
473.98 K	87.1 kg/m3	1072.2 kg/m3
493.99 K	131.1 kg/m3	986.7 kg/m3
504.08 K	163.1 kg/m3	933.6 kg/m3
514.2 K	208.7 kg/m3	866.1 kg/m3
524.52 K	287.7 kg/m3	764.6 kg/m3

Conditions	Critical temperature [K]
Liquid	531.04
